# Measurements published in patent publication US8268293B2, “UV protection” (Merck Patent GmbH, priority 2005, dated 2012).
# Key:
# [1] = Oxidation in UV light in the presence of further antioxidants: UV/VIS spectrum of beta-carotene emulsions on irradiation
# [2] = Oxidation in UV light: change in the UV spectrum on irradiation; type: physicochemical
# Method: The curves stand for the unirradiated substance (exposed to 0 kJ/m^2), after irradiation for 15 min (exposure to 86 kJ/m^2), after irradiation for 65 min (exposure to 373 kJ/m^2), after irradiation for 235 min (exposure to 1349 kJ/m^2) and after irradiation for 405 min (exposure to 2325 kJ/m^2).
smiles,measurement,setting,value
CCCCC(CC)COC(=O)C(Cc1cc(OC)c(O)c(OC)c1)C(=O)OCC(CC)CCCC (stereo not shown),effect on beta-carotene degradation in the emulsion on UV irradiation,"[1]; emulsion with 0.5% beta-carotene and 4% compound vs emulsion without compound, irradiated 90 min, beta-carotene absorption at 440-480 nm",stabilises the beta-carotene
same,Emax of the absorption of the reaction product in the UV-A region,"[1]; emulsion with 0.5% by weight beta-carotene and 4% by weight compound, irradiated 90 min (curve B)",320-340 nm
same,UV absorption in the UV-A region on irradiation with UV light,"[2]; after irradiation for 65 min (373 kJ/m^2), xenon lamp 95.69 W/m^2, 290-400 nm, increases further on longer irradiation",significantly increased UV absorption
same,Emax of the UV-A absorption developed on irradiation,"[2]; neat substance, after UV irradiation",320-340 nm
